The target of assay [1] is T1, UDP-N-acetylglucosamine pyrophosphorylase (AfUAP1) (Aspergillus fumigatus, UniProt Q4WAR0).
T1 construct: gene AFUA_7G02180
T1 sequence (Q4WAR0 1-509): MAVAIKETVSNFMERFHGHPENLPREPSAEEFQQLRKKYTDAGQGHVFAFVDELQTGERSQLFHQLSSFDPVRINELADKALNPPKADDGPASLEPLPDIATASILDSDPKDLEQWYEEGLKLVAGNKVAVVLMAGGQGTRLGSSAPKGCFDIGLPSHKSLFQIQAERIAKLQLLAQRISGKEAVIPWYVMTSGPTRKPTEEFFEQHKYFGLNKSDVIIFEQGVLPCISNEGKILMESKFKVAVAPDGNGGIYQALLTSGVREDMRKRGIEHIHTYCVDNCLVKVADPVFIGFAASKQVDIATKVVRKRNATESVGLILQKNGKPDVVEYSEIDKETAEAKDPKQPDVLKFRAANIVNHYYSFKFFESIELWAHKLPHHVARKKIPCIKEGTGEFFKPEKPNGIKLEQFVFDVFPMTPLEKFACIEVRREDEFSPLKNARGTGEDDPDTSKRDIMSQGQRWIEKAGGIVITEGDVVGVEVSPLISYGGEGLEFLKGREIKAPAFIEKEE

The target in assay [2] is T1, UDP-N-acetylglucosamine pyrophosphorylase (AfUAP1). Description: HPAEC assay of UDP-GlcNAc formation by recombinant enzyme. Format: biochemical.

In general, IC50 refers to the concentration needed to halve the response being measured.

Regarding `O=P(O)(O)OP(=O)(O)O` [pyrophosphate], the “X-ray crystal structure, 1.75 Å (PPi and Mg2+ soak)” value in assay [1] was “is tethered by interactions with positively charged residues, such as Arg141, Lys437 and Lys148”.

On to `O=c1ccn([C@@H]2O[C@H](COP(=O)(O)CP(=O)(O)OP(=O)(O)O)[C@@H](O)[C@H]2O)c(=O)[nH]1` [compound 5, meUTP], for which, in assay [2], the IC50 came out at 115 ± 40 µM.

These data come from paper PMC8386105, “A mechanism-inspired UDP-N-acetylglucosamine pyrophosphorylase inhibitor” (RSC Chemical Biology, 2020).
